Assays:
[1] = system: callus derived from scutellum of mature embryos of Oryza sativa cv. Taipei 309; test: Rice callus transformation (Agrobacterium) with cyanamide selection; assay type: cell-based; conditions: for Calli able to regenerate: 15 mg/l cyanamide
Method: Described below is the method used for transformation of callus derived from scutellum of mature embryos of Oryza sativa cv. Taipei 309 using Agrobacterium tumefaciens strain LBA1119-pMOG1295 (harboring the cah-gene) and strain LBA1119-pMOG1253 (control). Sterile dehusked rice seeds were germinated on plates containing Callus Induction Medium (CIM) in the dark at 28° C. (The contents of various media can be found in Table 5). After 3 weeks embryogenic callus derived from the scutellum is isolated and subcultured on the same medium under the same conditions. After 2-3 weeks embryogenic calli were cut in segments of approximately 2-3 mm and cultured plates containing CIM for 4 days. The Agrobacterium strains used in this study harbored a rifampicin selection marker in a C 58 chromosomal background. The construction of the helper strain EHA105 is described by Hood et al. (1993). Agrobacteria were grown for 4 days on plates containing AB medium with antibiotics (rifampicin 20 mg/l, kanamycin 100 mg/l ). Agrobacteria were collected in LIM and the OD600 was adjusted till 1.0-1.5. This suspension was used for cocultivation. Calli were incubated for 10 minutes with the Agrobacterium suspension and dried on sterile filter paper to remove excess of bacteria. Calli were cultured for 48 h on Coculture Medium (COM) plates at 25° C. in the dark. 50 pMOG1295 calli and 20 pMOG1253 calli were cultured per concentration of cyanamid. The following concentrations of cyanamide were used: 0, 15, 30, 60, 100, 150, 200, 300 and 500 mg/l. Hygromycin was applied in a concentration of 50 mg/l. Calli were incubated on First Selection Medium (FSM) plates containing several concentrations of cyanamide or hygromycin at 28° C. in the dark. After 3 weeks the calli were transferred to Embryo Induction Medium I (EIM I) containing the same concentration of cyanamide or hygromycin . After another 3 weeks the calli were subcultured on Embryo Induction Medium II (EIM II) containing the same concentration of cyanamide or an increased concentration of hygromycin (75 mg/l). Calli were transferred to Shoot Induction Medium (SIM) containing the same concentration of cyanamide as during FSM, EIM I, EIM II and were cultured under 12 hours light period (2600 LUX) and 12 hours dark at 28 ° C. Approximately 3 weeks after transferring calli to SIM, shoots were regenerating and excised and placed in jars containing Pre-Greenhouse Medium (PGM). […] At 15 mg/l cyanamide the regeneration frequency of callus from both constructs was the same (pMOG1253 7 out of 16 calli were able to regenerate, pMOG1295 17 out of 44).

[2] = system: BMS cells; test: Maize killing curve; assay type: cell-based; conditions: for Observations (light microscope) / % dead cells (light microscope): Day 15; for % dead cells (light microscope): clumps of cells
Method: Stock solutions of cyanamide were prepared in water at 10 and 100 mg/ml and filter sterilised. Aliquots were stored at −20° C. Media were prepared by adding MS medium (4.4 g), sucrose (20 g), 2,4-D (2.0 mg) and agar (8 g) to 1 litre of water. […] BMS liquid was prepared as above minus agar. BMS cells were added to media containing cyanamide in three ways:
a. BMS cell suspension added to falcon tube and liquid removed. Then the BMS cells were arranged on the surface of the agar in clumps of approximately 5 mm in diameter, 5 clumps per plate, 3 plates per concentration, while on the base of each petri dish the outline of each clump was marked;
b. Approximately 0.5 ml pack cell volume plus 1.5 ml BMS liquid added to surface of agar and the cells were spread finely over surface of agar. Three plates per treatment were set up.
c. Approximately 0.5 ml pack cell volume plus 1.5 ml BMS liquid were added to filter paper overlying agar. Cells were spread evenly over surface of filter. One plate per treatment was set up.
The plates were sealed with micropore tape and incubated at 25° C. in the dark. […]
Samples were taken from the clumps of cells on all levels of cyanamide for observation under a light microscope. With increasing levels of cyanamide there were increasing numbers of dead cells where the cell contents had shrunk away from the cell wall, and an increase in the number of dark bodied starch grains. Cells were observed resuspended in water and with FDA stain under UV light.

[3] = pMOG1295, 30 mg/l cyanamide, 50 calli cultured

## N#CN [Cyanamide]
[1]; cyanamide 100 mg/l or higher, pMOG1295 and pMOG1253 calli
  Callus formation: No calli were formed
[1]; pMOG1253 (control)
  Calli able to regenerate: 7 out of 16
[1]; pMOG1295 (cah-gene)
  Calli able to regenerate: 17 out of 44
[1]; [3]
  Calli able to be regenerated: 6
  Calli showing green callus development: 11
[2]; 10 mg/l
  Observations (light microscope): Signs of stress.
  % dead cells (light microscope): Approx 5% dead.
[2]; 10 mg/l, after 15 days
  Growth of BMS cells: reduction in growth of BMS cells on 10 mg/l was still very clear
[2]; 30 mg/l
  Observations (light microscope): Striking differences from control cells.
  % dead cells (light microscope): Approx 15-20% dead.
[2]; 50 mg/l plus, after 15 days
  Growth of BMS cells: showed no signs of growth
[2]; 50 mg/l
  Observations (light microscope): Increasing number of dead cells and accumulation of starch
  % dead cells (light microscope): Approx 50% dead.
[2]; 100 mg/l
  Observations (light microscope): Majority of cell dead.
  % dead cells (light microscope): Approx 90% dead.
[2]; 150 mg/l
  Observations (light microscope): Majority of cells dead.
  % dead cells (light microscope): Approx 95-98% dead.
[2]; all levels of cyanamide, after 8 days
  Colour of BMS cells: no browning of cells was observed
[2]; cells spread over surface of media, 10 mg/l, after 8 days
  Growth of BMS cells: significant reduction in growth
[2]; cells spread over surface of media, 30 mg/l, after 8 days
  Cell density of BMS cells: slight increase in cell density
[2]; clumps and cells spread over agar, 30 mg/l plus, after 15 days
  Growth of BMS cells: notable reduction in growth
[2]; clumps on agar, 10 mg/l, after 8 days
  Growth of BMS cell clumps: had not outgrown their outline but the height of the clumps had increased
[2]; clumps on agar, after 8 days
  Cyanamide concentration with maximum effect on growth: 50 mg/L
[2]; repeated experiment, 10 mg/l
  Growth of BMS cell clumps: slight reduction in growth
[2]; repeated experiment, above 50 mg/l
  Colour of BMS cell clumps: slight orange tinge
[2]; repeated experiment, cells spread over agar or on filters, 10 mg/l
  Growth of BMS cells: slight growth (approximately doubling of the number of original cells)
[2]; repeated experiment, cells spread over agar or on filters, 20 mg/l and higher
  Growth of BMS cells: limited of growth
[2]; repeated experiment, from 20 mg/l on
  Growth of BMS cell clumps: showed no outgrowing from their original outline

— US6660910B1, “Selection marker” (Syngenta Mogen B.V., priority 1997, dated 2003)
